According to US20010044151A1, “Ligands for modulating the expression of exogenous genes via an ecdysone receptor complex” (priority 1998, published 2001):
Where two headings read alike, the source gives them in different places.

Biological target: T1, ecdysteroid receptor complex in Drosophila Kc cell cytosolic extract (Drosophila melanogaster, UniProt P34021)
T1 construct: The supernatant, containing the cytosolic protein extract; endogenous in cells; host or cells: Drosophila Kc167 cells, cytosolic extract
T1 sequence (P34021 1-878): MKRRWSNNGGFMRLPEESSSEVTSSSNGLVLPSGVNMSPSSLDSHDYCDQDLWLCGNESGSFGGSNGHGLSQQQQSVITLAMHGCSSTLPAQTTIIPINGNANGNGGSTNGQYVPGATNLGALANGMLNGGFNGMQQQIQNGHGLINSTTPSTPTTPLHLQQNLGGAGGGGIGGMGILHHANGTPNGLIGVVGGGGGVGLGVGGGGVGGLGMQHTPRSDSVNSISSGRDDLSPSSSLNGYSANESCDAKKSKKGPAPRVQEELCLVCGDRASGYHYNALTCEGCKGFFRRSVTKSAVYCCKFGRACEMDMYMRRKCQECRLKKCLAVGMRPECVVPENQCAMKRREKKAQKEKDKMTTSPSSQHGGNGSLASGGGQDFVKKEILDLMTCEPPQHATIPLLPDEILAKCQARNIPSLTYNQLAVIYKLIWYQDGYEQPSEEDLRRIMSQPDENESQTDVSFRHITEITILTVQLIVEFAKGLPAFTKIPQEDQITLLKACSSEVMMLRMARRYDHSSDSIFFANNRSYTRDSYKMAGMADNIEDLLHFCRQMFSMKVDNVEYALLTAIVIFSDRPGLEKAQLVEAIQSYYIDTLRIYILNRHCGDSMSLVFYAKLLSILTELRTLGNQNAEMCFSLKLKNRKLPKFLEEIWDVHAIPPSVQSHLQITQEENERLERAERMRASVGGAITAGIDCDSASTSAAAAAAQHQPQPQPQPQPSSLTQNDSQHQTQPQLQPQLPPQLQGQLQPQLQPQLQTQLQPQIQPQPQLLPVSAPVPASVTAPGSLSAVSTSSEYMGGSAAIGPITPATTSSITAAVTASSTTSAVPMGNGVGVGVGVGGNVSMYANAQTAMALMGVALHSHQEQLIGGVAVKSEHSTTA
T1 sequence (P20153 1-508 partner): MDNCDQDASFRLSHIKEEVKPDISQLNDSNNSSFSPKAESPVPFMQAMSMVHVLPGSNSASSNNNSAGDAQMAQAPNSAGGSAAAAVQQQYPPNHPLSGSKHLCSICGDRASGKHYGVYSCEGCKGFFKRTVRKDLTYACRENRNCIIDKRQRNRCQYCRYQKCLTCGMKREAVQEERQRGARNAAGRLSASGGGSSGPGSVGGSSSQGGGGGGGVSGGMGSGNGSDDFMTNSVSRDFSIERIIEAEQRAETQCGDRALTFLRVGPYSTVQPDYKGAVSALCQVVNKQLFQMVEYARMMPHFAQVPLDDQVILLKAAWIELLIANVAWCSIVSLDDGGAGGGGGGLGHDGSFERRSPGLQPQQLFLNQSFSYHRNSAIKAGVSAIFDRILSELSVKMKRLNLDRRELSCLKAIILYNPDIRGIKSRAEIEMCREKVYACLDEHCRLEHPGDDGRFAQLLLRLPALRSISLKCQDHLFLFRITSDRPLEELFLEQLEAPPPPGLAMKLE
Test: Competitive 3H-ponasterone A binding assay, Kc cytosolic ecdysone receptor extract
Settings: for EC50 / Kc log(1/EC50): Kc cells/extract; for EC50: read-out: Kc log(1/EC50) (converted); for Kd: read-out: Kd for Kc cells
Experimental: The dipteran cell line Kc167, originally derived from Drosophila embryos (see Echalier, G. and Ohanessian, A. (1969) C. R. Acad. Sci., 268, 1771) was obtained from Dr. Peter Cherbas (Indiana University) and maintained as described (Cherbas, L., et. al., (1994), Methods in Cell Biology, 44, 161-179). A 400 ml culture of Kc Cells (3×10^7 cells per ml) was centrifuged at 700×g for 10 minutes at room temperature to pellet the cells. The supernatant was aspirated and the pellet was resuspended in 70 ml of cold TM buffer (10 mM Tris, 5 mM MgCl2, 1 mM DTT, pH 7.2). After a 10 minute incubation on ice, the cells were centrifuged at 2,300×g. The supernatant was discarded. The cell pellet was frozen at −20° C. for 1 hour. The frozen cell pellet was thawed slowly on ice and homogenized in a cold Potter-Elvehjem homogenizer using a teflon pestle on a Caframo homogenizer motor, at setting 500 with 10 up and down strokes at 4° C. This slurry was centrifuged at 100,000×g in a swinging bucket rotor for 60 minutes. The supernatant, containing the cytosolic protein extract was diluted with T buffer (10 mM Tris, 1 mM DTT, pH 7.2) to a protein concentration of 5 mg/ml. This extract was used immediately for ligand binding assays.
^3H ponasterone A, a potent phytoecdysteroid, (66,000 dpm; specific activity 170 Ci/mmole; NEN Life Science Products, Boston, Mass.) was mixed with 100 μl Kc cytosolic or Plodia nuclear ecdysone receptor extracts in […] glass test tubes in the absence or presence of 10 μM unlabelled 20-hydroxyecdysone (20E) to obtain an estimate of total or non-specific respectively, binding of tritiated ponasterone A. The tubes were vortexed and incubated overnight at 4° C. for Kc cytosolic extracts or 1.5 hours for Plodia nuclear extracts for binding reactions to reach equilibrium. At the end of equilibrium binding times, the bound tritiated ponasterone A was separated from the unbound by addition of ice-cold 600 μl or 300 μl dextran-coated charcoal solution (500 mg of Sigma HCL-washed activated charcoal, 50 mg Pharmacia Dextran T70, 50 ml T-buffer) to Kc or Plodia extracts, respectively. The tubes were vortexed briefly and centrifuged at 7,000×g to pellet the charcoal. The supernatant, 600 μl or 300 μl for Kc or Plodia extract reactions, respectively, containing tritiated ponasterone A bound to proteins, was aspirated into liquid scintillation vials containing 5 ml scintillation cocktail (ReadySafe®, Beckmann) each The mixture was vortexed and the amount of total or non-specifically bound radioactivity measured in a Beckmann LS500 liquid scinitllation counter with a 60% counting efficiency for tritium.
The concentrations of competitors that inhibited 50% of tritiated ponasterone A binding (IC50) was determined by incubating Kc or Plodia nuclear extracts or extracts of bacteria producing CfEcR(CDEF)-GST and CfUSP-GST fusions proteins with ^3H-ponasterone A (66,000 dpm per reaction) in the presence of a range of concentrations (0.1 nM to 10 μM) of test compounds. In the case of binding reactions using bacterial fusion proteins, 20 or one μl extract of bacteria producing CfEcR(CDEF)-GST or CfUSP-GST fusion proteins, respectively, were included per binding reaction. The assay conditions and determination of total and non-specific binding was as described above. The volume of competitor in solvent, like that for 20E or solvent alone, was kept at 1% of total reaction volume by using a 100 fold concentrated stock solution (i.e. a 100 fold dilution of stock solutions). The remainder of the assay was as described above. Each reaction was carried out in duplicate per concentration per test compound. Specific binding of ^3H-ponasterone A was determined by subtracting non-specific binding (that obtained in the presence of 10 μM 20E) from total (no competitor) or competed radioactivity bound. The data for each test compound was analyzed using IGOR Pro software (WaveMetrics, Lake Oswego, Oreg.) to calculate IC50 value. […]

SMILES | EC50 [nM] | Kd (Table 2) [nM] | Kd (Table 3) [nM] | Kc log(1/EC50)
CCc1ccc(C(=O)NN(C(=O)c2cc(C)cc(C)c2)C(C)(C)C)cc1 [CE-1, N-(4-ethylbenzoyl)-N′-(3,5-dimethylbenzoyl)-N′-tert-butyl-hydrazine, reference compound] | 282 | 110 | 192 | –
COc1cccc(C(=O)NN(C(=O)c2cc(C)cc(C)c2)C(C)(C)C)c1C [Ligand 3] | – | 124 | 124 | 6.74
CC(C)CC[C@@H](O)[C@](C)(O)[C@H]1CC[C@@]2(O)C3=CC(=O)[C@]4(O)C[C@@H](O)[C@@H](O)C[C@]4(C)[C@H]3[C@H](O)C[C@]12C [CE-3, muristerone A, reference compound] | – | 2.3 | 2 | 7.96
CCc1c(OC)cccc1C(=O)NN(C(=O)c1cc(F)cc(F)c1)C(C)(C)C [Ligand 4] | – | 47 | 26 | 7.41
Cc1cc(C)cc(C(=O)N(NC(=O)c2ccc3c(c2C)OCCO3)C(C)(C)C)c1 [Ligand 2] | – | 60 | 47 | 7.16
CCOc1cccc(C(=O)NN(C(=O)c2cc(C)cc(C)c2)C(C)(C)C)c1CC [Ligand 12] | – | 5.3 | 5 | 8.10
CC(C)CC[C@@H](O)[C@](C)(O)[C@H]1CC[C@@]2(O)C3=CC(=O)[C@@H]4C[C@@H](O)[C@@H](O)C[C@]4(C)[C@H]3CC[C@]12C [CE-4, ponasterone A, reference compound] | – | 0.7 | 0.7 | –
CCc1c(OC)cccc1C(=O)NN(C(=O)c1cccc(OC)c1)C(C)(C)C [Ligand 1] | – | 39.5 | 40 | 7.36
CC(C)(C)N(NC(=O)c1ccccc1)C(=O)c1ccccc1 [CE-2, 1,2-dibenzoyl-1-tert-butyl-hydrazine, reference compound] | 3020 | 2000 | 2000 | –
CCc1c(OC)cccc1C(=O)NN(C(=O)c1cc(C)cc(C)c1)C(C)(C)C [Ligand 5] | – | 13.3 | 13 | 7.70
CCc1c(OC)cccc1C(=O)NN(C(=O)c1cc(Cl)cc(Cl)c1)C(C)(C)C [Ligand 13] | – | 65 | 24 | 7.44
